Measured values: patent publication US20050026987A1, “CBI analogues of the duocarmycins and CC-1065” (The Scripps Research Institute, priority 2003, published 2005)
Several values for one entry are separate records, joined by “and”; a condition that tells them apart may be missing. Equal values may be shown once. Read-outs that look alike come from different tables or passages of the source.

Tests used:
L1210 [1] = assay: L1210 cytotoxic potency; conditions: for distinction NO2 versus OMe substituent (more potent than corresponding methoxy derivative): C5, C6, C7 nitro vs corresponding methoxy; for fold less potent than C5 acyl derivative 54: 52: versus the C5 acyl derivatives, 62: versus 54
L1210 [2] = conditions: cited from earlier work
w794 DNA = assay: DNA alkylation selectivity, efficiency and rate in w794 DNA; type: biochemical
[3] = relative to (+)-CBI-indole (R=H)
[4] = read-out: IC50 (cytotoxic potency), L1210
[5] = Mus musculus, L1210, read-out: IC50 (cytotoxic potency)
[6] = relative to CBI-TMI, IC50=30 pM

## O=C1C=C2N(C(=O)c3cc4c(ccc5ccccc54)[nH]3)C[C@H]3C[C@@]23c2ccccc21 [(+)-77, N^2-[(Benz[e]indole-2-yl)carbonyl]-1,2,9,9a-tetrahydrocyclopropa[c]benz[e]indol-4-one]
L1210 [1]
  reduction in potency relative to the fused pyrrole 69 or the fused furan 71: 6-8 fold
L1210 [1]; [3]
  reduction in cytotoxic potency compared to (+)-CBI-indole: 2 fold

## O=C1C=C2N(C(=O)c3cc4cc5ccccc5cc4[nH]3)C[C@@H]3C[C@]23c2ccccc21 [(+)-78, N^2-[(Benz[f]indole-2-yl)carbonyl]-1,2,9,9a-tetrahydrocyclopropa[c]benz[e]indol-4-one]
L1210 [1]; [3]
  increase in cytotoxic potency over (+)-CBI-indole (5): 5 fold

## NC(=O)N1CCc2c1ccc1[nH]c(C(=O)N3C[C@H]4C[C@@]45C3=CC(=O)c3ccccc35)cc21 [(+)-CBI-CDPI1]
L1210 [2]; disclosed in prior studies (J. Org. Chem. 1996, 61, 4894), read-out: IC50 (cytotoxic potency), prior studies
  IC50: 0.005 nM

## COc1cc2cc(C(=O)N3CC4CC45C3=CC(=O)c3ccccc35)[nH]c2c(OC)c1OC (stereo not drawn) [CBI-TMI, reference compound]
L1210 [1]; [4]
  IC50: 0.03 nM
L1210 [1]; [3]
  increase in cytotoxic potency over (+)-CBI-indole (5): ~100 fold and 90 fold

## COc1c(O)c2c(c3cc(C(=O)N4CCc5c4c(O)c(OC)c4[nH]c(C(=O)N6CC7CC78C6=CC(=O)c6[nH]cc(C)c68)cc54)[nH]c13)CCN2C(N)=O (stereo not drawn) [CC-1065]
L1210 [1]; [5]
  IC50: 0.02 nM

## O=C1C=C2N(C(=O)c3cc4ccccc4[nH]3)CC3CC23c2ccccc21 [compound 5, N^2-[(Indole-2-yl)carbonyl]-(8bR,9aS)-1,2,9,9a-tetrahydrocyclopropa[c]benz[e]indol-4-one, reference compound]
L1210 [1]; [4]
  IC50: 0.05 nM

## COc1cccc2[nH]c(C(=O)N3C[C@H]4C[C@@]45C3=CC(=O)c3ccccc35)cc12 [compound 6, N^2-[(4-Methoxyindole-2-yl)carbonyl]-(8bR,9aS)-1,2,9,9a-tetrahydrocyclopropa[c]benz[e]indol-4-one]
L1210 [1]; [3]
  increase in cytotoxic potency over (+)-CBI-indole (5): 4 fold
L1210 [1]; [6]
  decrease in cytotoxic potency compared with CBI-TMI (4): 17 fold and 16-17 fold

## COc1ccc2[nH]c(C(=O)N3C[C@H]4C[C@@]45C3=CC(=O)c3ccccc35)cc2c1 [compound 7, N^2-[(5-Methoxyindole-2-yl)carbonyl]-(8bR,9aS)-1,2,9,9a-tetrahydrocyclopropa[c]benz[e]indol-4-one]
L1210 [1]; [4]
  IC50: 0.05 nM
L1210 [1]; [6]
  decrease in cytotoxic potency compared with CBI-TMI (4): 1.6 fold

## COc1ccc2[nH]c(C(=O)N3CC4CC45C3=CC(=O)c3ccccc35)cc2c1OC [compound 10, N^2-[(4,5-Dimethoxyindole-2-yl)carbonyl]-(8bR,9aS)-1,2,9,9a-tetrahydrocyclopropa[c]benz[e]indol-4-one]
L1210 [1]
  relative cytotoxic potency in words: much less active

## COc1ccc2cc(C(=O)N3CC4CC45C3=CC(=O)c3ccccc35)[nH]c2c1OC [compound 12, N^2-[(6,7-Dimethoxyindole-2-yl)carbonyl]-(8bR,9aS)-1,2,9,9a-tetrahydrocyclopropa[c]benz[e]indol-4-one]
L1210 [1]; [6]
  decrease in cytotoxic potency compared with CBI-TMI (4): 6.6 fold

## CCOc1ccc2[nH]c(C(=O)N3CC4CC45C3=CC(=O)c3ccccc35)cc2c1 [compound 15, N^2-[(5-Ethoxyindole-2-yl)carbonyl]-(8bR,9aS)-1,2,9,9a-tetrahydrocyclopropa[c]benz[e]indol-4-one]
L1210 [1]; C5 alkyl ethers relative to C5 OMe
  additional increase in cytotoxic potency versus C5 methoxy: 5 fold
L1210 [1]; [4]
  IC50: 0.01 nM

## CSc1ccc2[nH]c(C(=O)N3CC4CC45C3=CC(=O)c3ccccc35)cc2c1 [compound 21, N^2-[(5-Thiomethylindole-2-yl)carbonyl]-(8bR,9aS)-1,2,9,9a-tetrahydrocyclopropa[c]benz-[e]indol-4-one]
L1210 [1]; [4]
  IC50: 0.05 nM

## CCSc1ccc2[nH]c(C(=O)N3CC4CC45C3=CC(=O)c3ccccc35)cc2c1 [compound 23, N^2-[(5-Thioethylindole-2-yl)carbonyl]-(8bR,9aS)-1,2,9,9a-tetrahydrocyclopropa[c]benz[e]indol-4-one]
L1210 [1]; [4]
  IC50: 0.1 nM

## Cc1ccc2[nH]c(C(=O)N3C[C@H]4C[C@@]45C3=CC(=O)c3ccccc35)cc2c1 [compound 24, N^2-[(5-Methylindole-2-yl)carbonyl]-(8bR,9aS)-1,2,9,9a-tetrahydrocyclopropa[c]benz[e]in-dol-4-one]
L1210 [1]; [4]
  IC50: 2 nM

## CCc1ccc2[nH]c(C(=O)N3CC4CC45C3=CC(=O)c3ccccc35)cc2c1 [compound 25, N^2-[(5-Ethylindole-2-yl)carbonyl]-(8bR,9aS)-1,2,9,9a-tetrahydrocyclopropa[c]benz[e]indol-4-one]
L1210 [1]; [4]
  IC50: 2 nM

## N#Cc1ccc2[nH]c(C(=O)N3CC4CC45C3=CC(=O)c3ccccc35)cc2c1 [compound 31, N^2-[(5-Cyanoindole-2-yl)carbonyl]-(8bR,9aS)-1,2,9,9a-tetrahydrocyclopropa[c]benz[e]in-dol-4-one]
L1210 [1]; [4]
  IC50: 0.03 nM

## O=C(c1cc2cc([N+](=O)[O-])ccc2[nH]1)N1C[C@@H](CCl)c2c1cc(O)c1ccccc21 [compound 49, 3-(5-Nitroindole-2-carbonyl)-1-(S)-(chloromethyl)-5-hydroxy-1,2-dihydro-3H-benz[e]indole]
L1210 [1]
  distinction NO2 versus OMe substituent (more potent than corresponding methoxy derivative): 2.5 ×
L1210 [1]; [5]
  IC50: 0.02 nM

## O=C(c1cc2ccc([N+](=O)[O-])cc2[nH]1)N1C[C@@H](CCl)c2c1cc(O)c1ccccc21 [compound 50, 3-(6-Nitroindole-2-carbonyl)-1-(S)-(chloromethyl)-5-hydroxy-1,2-dihydro-3H-benz[e]indole]
L1210 [1]
  distinction NO2 versus OMe substituent (more potent than corresponding methoxy derivative): 5 ×

## O=C(c1cc2cccc([N+](=O)[O-])c2[nH]1)N1C[C@@H](CCl)c2c1cc(O)c1ccccc21 [compound 51, 3-(7-Nitroindole-2-carbonyl)-1-(S)-(chloromethyl)-5-hydroxy-1,2-dihydro-3H-benz[e]indole]
L1210 [1]
  distinction NO2 versus OMe substituent (more potent than corresponding methoxy derivative): 1.5 ×

## O=Cc1ccc2[nH]c(C(=O)N3C[C@@H](CCl)c4c3cc(O)c3ccccc43)cc2c1 [compound 52, 3-(5-Formylindole-2-carbonyl)-1-(S)-(chloromethyl)-5-hydroxy-1,2-dihydro-3H-benz[e]indole]
L1210 [1]
  fold less potent than C5 acyl derivative 54: 50 fold

## CC(=O)c1ccc2[nH]c(C(=O)N3C[C@H]4C[C@@]45C3=CC(=O)c3ccccc35)cc2c1 [compound 54, N^2-[(5-Acetylindole-2-yl)carbonyl]-(8bR,9aS)-1,2,9,9a-tetrahydrocyclopropa[c]benz[e]in-dol-4-one]
w794 DNA
  DNA alkylation selectivity: no alterations in the inherent DNA alkylation selectivity
  rate and efficiency of DNA alkylation: enhanced rate and efficiency of DNA alkylation
L1210 [1]; [3]
  increase in cytotoxic potency over (+)-CBI-indole (5): 1000 fold

## CCC(=O)c1ccc2[nH]c(C(=O)N3CC4CC45C3=CC(=O)c3ccccc35)cc2c1 [compound 56, N^2-[(5-Propionylindole-2-yl)carbonyl]-(8bR,9aS)-1,2,9,9a-tetrahydrocyclopropa[c]benz[e]-indol-4-one]
L1210 [1]; [3]
  increase in cytotoxic potency over (+)-CBI-indole (5): 1000 fold

## CCCC(=O)c1ccc2[nH]c(C(=O)N3C[C@H]4C[C@@]45C3=CC(=O)c3ccccc35)cc2c1 [compound 57, N^2-[(5-Butyrylindole-2-yl)carbonyl]-(8bR,9aS)-1,2,9,9a-tetrahydrocyclopropa[c]benz[e]indol-4-one]
L1210 [1]; [4]
  IC50: 0.02 nM

## CNC(=O)c1ccc2[nH]c(C(=O)N3C[C@@H](CCl)c4c3cc(O)c3ccccc43)cc2c1 [compound 62, 3-(5-Methylcarbamoylindole-2-carbonyl)-1-(S)-(chloromethyl)-5-hydroxy-1,2-dihydro-3H-benz[e]indole]
L1210 [1]
  fold less potent than C5 acyl derivative 54: 5 fold
L1210 [1]; [6]
  fold more potent than (+)-CBI-TMI: 3 fold

## CS(=O)(=O)c1ccc2[nH]c(C(=O)N3C[C@@H](CCl)c4c3cc(O)c3ccccc43)cc2c1 [compound 64, 3-(5-Methylsulfonylindole-2-carbonyl)-1-(S)-(chloromethyl)-5-hydroxy-1,2-dihydro-3H-benz[e]indole]
L1210 [1]; [5]
  IC50: 0.003 nM
L1210 [1]; [3]
  increase in cytotoxic potency over (+)-CBI-indole (5): 1000 fold

## CCS(=O)(=O)c1ccc2[nH]c(C(=O)N3C[C@@H](CCl)c4c3cc(O)c3ccccc43)cc2c1 [compound 65, 3-(5-Ethylsulfonylindole-2-carbonyl)-1-(S)-(chloromethyl)-5-hydroxy-1,2-dihydro-3H-benz[e]indole]
L1210 [1]; [5]
  IC50: 0.04 nM

## O=C1C=C2N(C(=O)c3cc4c5c(ccc4[nH]3)OCC5)CC3CC23c2ccccc21 [compound 70, N^2-[(1,2-Dihydropyrrolo[3,2-e]benzofuran-7-yl)carbonyl]-(8bR,9aS)-1,2,9,9a-tetrahydro-cyclopropa[c]benz[e]indol-4-one]
L1210 [1]
  relative cytotoxic potency in words: slightly more potent than 7

## O=C1CCc2c1ccc1[nH]c(C(=O)N3C[C@@H](CCl)c4c3cc(O)c3ccccc43)cc21 [compound 72, 3-(6-Oxo-cyclopenten[e]indole-2-carbonyl)-1-(S)-(chloromethyl)-5-hydroxy-1,2-dihydro-3H-benz[e]indole]
L1210 [1]
  relative cytotoxic potency in words: matched the potency of the C5 substituted methyl and ethyl ketones 54 and 56

## O=C(C1Oc2ccc3[nH]ccc3c2O1)N1C[C@@H](CCl)c2c1cc(O)c1ccccc21 (stereo partly drawn) [compound 74, 3-([1,3]Dioxolo[e]indole-2-carbonyl)-1-(S)-(chloromethyl)-5-hydroxy-1,2-dihydro-3H-benz[e]indole]
L1210 [1]
  relative cytotoxic potency in words: much more active than the corresponding unconstrained 4,5 dimethoxy derivative 10

## O=C1C=C2N(C(=O)c3cc4cc5c(cc4[nH]3)OCO5)C[C@H]3C[C@@]23c2ccccc21 [compound 75, N^2-[([1,3]Dioxolo[f]indole-2-yl)carbonyl]-(8bR,9aS)-1,2,9,9a-tetrahydrocyclopropa[c]-benz[e]indol-4-one]
L1210 [1]
  relative cytotoxic potency in words: substantially less potent than the corresponding unconstrained C5,6 dimethoxy derivative 11

## COC(=O)c1cc2c([nH]1)C(=O)C=C1N(C(=O)c3cc4cc(OC)c(OC)c(OC)c4[nH]3)CC3CC123 (stereo not drawn) [duocarmycin SA, reference compound]
L1210 [2]; literature comparison series
  effect of 5,6,7-trimethoxy substitution / removal of TMI methoxy substituents on cytotoxic potency: 6.5-10 fold
L1210 [1]; [5]
  IC50: 0.006 to 0.01 nM
